# Tests used:
# Assay in all cases: relative viability (nuclei count vs DMSO), 5 days (fraction); higher = more cells survive
# [1] = compound: COc1nc(N)nc2c1ncn2[C@@H]1O[C@H](CO)[C@@H](O)[C@@H]1O [Nelarabine] + Nc1ncn([C@H]2C[C@H](O)[C@@H](CO)O2)c(=O)n1 [Decitabine] (partner 2 µM)
# Method in brief: (§1)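 Lung cancer cell lines were pin-tool dosed in 1536-well plates on the day after seeding, with either a lone drug or a fixed anchor-drug dose plus five library-drug doses (not always all listed) in √10 steps. Nuclei were counted on 4× images after 5 days. Relative viability is the ratio of treated-well to vehicle-well nuclei counts, with each value a median of duplicate plates.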
# [2] = compound: C=CCn1c(=O)c2cnc(Nc3ccc(N4CCN(C)CC4)cc3)nc2n1-c1cccc(C(C)(C)O)n1 [Adavosertib] + C[C@]1(O)C[C@@H](c2nc(-c3ccc4ccc(-c5ccccc5)nc4c3)c3c(N)nccn32)C1 [Linsitinib] (partner 1 µM)
# Method in brief: as §1
# [3] = compound: COc1nc(N)nc2c1ncn2[C@@H]1O[C@H](CO)[C@@H](O)[C@@H]1O [Nelarabine] + CC(=O)c1c(C)c2cnc(Nc3ccc(N4CCNCC4)cn3)nc2n(C2CCCC2)c1=O [Palbociclib] (partner 0.5 µM)
# Method in brief: as §1
# [4] = compound: C=CCn1c(=O)c2cnc(Nc3ccc(N4CCN(C)CC4)cc3)nc2n1-c1cccc(C(C)(C)O)n1 [Adavosertib] + C[C@@H](Oc1cc(-c2cnn(C3CCNCC3)c2)cnc1N)c1c(Cl)ccc(F)c1Cl [Crizotinib] (partner 1 µM)
# Method in brief: as §1
Cell Line,relative viability ([1]; first compound 0.01 µM),relative viability ([1]; first compound 0.03162 µM),relative viability ([1]; first compound 0.1 µM),relative viability ([1]; first compound 0.3162 µM),relative viability ([1]; first compound 1 µM),relative viability ([2]; first compound 0.01 µM),relative viability ([2]; first compound 0.03162 µM),relative viability ([2]; first compound 0.1 µM),relative viability ([2]; first compound 0.3162 µM),relative viability ([3]; first compound 0.01 µM),relative viability ([3]; first compound 0.03162 µM),relative viability ([3]; first compound 0.1 µM),relative viability ([3]; first compound 0.3162 µM),relative viability ([3]; first compound 1 µM),relative viability ([4]; first compound 0.01 µM),relative viability ([4]; first compound 0.03162 µM),relative viability ([4]; first compound 0.1 µM),relative viability ([4]; first compound 0.3162 µM)
A-427,0.551,0.576,0.476,0.528,0.535,1.09,1.05,1.05,1.03,0.528,0.533,0.56,0.533,0.53,0.972,0.931,1.02,0.962
NCI-H2009,0.412,0.331,0.398,0.447,0.385,1.23,1.24,1.24,1.2,0.194,0.206,0.203,0.161,0.192,0.995,1.05,1.03,1.04
EPLC-272H,0.435,0.316,0.288,0.326,0.377,1.12,1.14,0.958,0.878,0.337,0.263,0.236,0.337,0.28,1.01,1.03,0.797,0.652
LC-2-ad,0.904,0.865,0.757,0.932,0.73,0.773,0.883,0.781,0.729,0.525,0.495,0.475,0.544,0.522,0.499,0.442,0.547,0.528
HCC-366,0.419,0.346,0.296,0.31,0.34,0.62,0.802,0.659,0.774,0.632,0.272,0.473,0.453,0.416,0.498,0.568,0.701,0.644
RERF-LC-KJ,0.764,0.639,0.705,0.699,0.711,0.925,0.921,0.848,0.796,1.13,1.17,1.09,1.17,0.97,0.795,0.815,0.94,0.925
EKVX,0.373,0.266,0.356,0.292,0.571,0.941,0.966,0.989,1.07,0.373,0.356,0.549,0.348,0.361,1.13,0.952,0.776,1.06
LOU-NH91,0.896,0.755,0.766,0.802,0.809,1,0.938,0.964,0.871,0.576,0.47,0.524,0.618,0.578,0.709,0.712,0.788,0.726
NCI-H647,0.483,0.385,0.381,0.357,0.38,1.12,1.04,1.28,0.454,0.423,0.396,0.501,0.457,0.458,1.2,1.08,0.967,0.593
NCI-H3122,0.419,0.299,,0.463,0.476,1.08,0.954,1.06,1.06,0.194,0.145,,0.201,0.207,0.287,0.241,0.294,0.271
NCI-H650,0.305,0.277,0.333,0.28,0.33,0.785,0.926,0.87,0.712,0.338,0.283,0.297,0.301,0.363,0.706,0.648,0.692,0.609
H3255,0.712,0.563,0.574,0.64,0.632,0.967,1.01,0.993,0.957,0.327,0.292,0.311,0.315,0.355,0.87,1.04,1.04,0.936
SW 1573,0.582,0.503,0.513,0.58,0.483,0.919,0.864,0.911,0.886,0.465,0.382,0.41,0.399,0.338,0.797,0.879,1.09,0.845
HCC-15,0.739,0.58,0.656,0.63,0.731,0.878,0.876,1.05,0.989,0.847,0.695,0.788,0.837,0.677,0.826,0.818,0.96,0.967
PC-3 [JPC-3],0.84,0.81,0.843,0.799,0.872,0.903,0.935,0.929,0.985,0.562,0.544,0.524,0.526,0.533,0.996,0.905,1.06,1
NCI-H1915,0.261,0.266,0.258,0.27,0.268,1.11,1.12,1.14,1.17,0.598,0.531,0.533,0.522,0.525,0.941,0.812,0.981,1
PC-14,0.225,0.231,0.202,0.219,0.224,0.915,0.957,0.942,0.575,0.705,0.53,0.582,0.601,0.706,0.91,1.02,1.02,0.646
LK-2,0.261,,0.272,0.341,0.319,0.761,0.742,0.522,0.424,1.04,,0.772,0.835,0.684,0.278,0.249,0.188,0.224

Cell Line,relative viability ([1]; first compound 0.01 µM),relative viability ([1]; first compound 0.03162 µM),relative viability ([1]; first compound 0.1 µM),relative viability ([1]; first compound 0.3162 µM),relative viability ([1]; first compound 1 µM),relative viability ([2]; first compound 0.01 µM),relative viability ([2]; first compound 0.03162 µM),relative viability ([2]; first compound 0.1 µM),relative viability ([2]; first compound 0.3162 µM),relative viability ([3]; first compound 0.01 µM),relative viability ([3]; first compound 0.03162 µM),relative viability ([3]; first compound 0.1 µM),relative viability ([3]; first compound 0.3162 µM),relative viability ([3]; first compound 1 µM),relative viability ([4]; first compound 0.01 µM),relative viability ([4]; first compound 0.03162 µM),relative viability ([4]; first compound 0.1 µM),relative viability ([4]; first compound 0.3162 µM)
COR-L 105,0.691,0.723,0.644,0.66,0.719,0.818,1.13,0.976,0.906,0.383,0.354,0.43,0.385,0.421,0.746,0.836,0.795,0.747
UMC-11,0.71,0.551,0.578,0.589,0.61,0.959,0.99,1.19,1.02,0.361,0.269,0.318,0.332,0.351,0.63,0.588,0.739,0.623
NCI-H1975,0.391,0.336,0.426,0.418,0.431,1,0.951,0.891,0.522,0.656,0.526,0.747,0.726,0.649,0.962,0.952,0.904,0.625
LXF-289,0.43,0.414,0.379,0.39,0.37,0.936,0.97,0.944,1.02,0.708,0.548,0.62,0.625,0.59,0.8,0.841,0.88,0.849
NCI-H1993,0.667,0.507,0.526,0.578,0.65,0.769,0.793,0.797,0.749,0.721,0.516,0.692,0.547,0.647,0.919,0.804,0.874,0.95
NCI-H23,0.249,0.272,0.299,0.348,0.303,0.53,0.612,0.444,0.29,0.54,0.51,0.43,0.503,0.634,0.532,0.558,0.517,0.432
NCI-H2023,0.239,0.207,0.241,0.223,0.219,0.638,0.742,0.505,0.392,0.321,0.369,0.348,0.336,0.302,0.717,0.681,0.573,0.551
COR-L23,0.532,0.381,0.408,0.482,0.446,0.965,0.904,0.745,0.209,0.4,0.243,0.26,0.267,0.282,0.69,0.731,0.797,0.304
LCLC-97TM1,,,0.274,0.279,0.241,,0.19,0.17,0.169,,,0.299,0.229,0.265,,0.501,0.357,0.147
NCI-H441,0.214,0.222,0.23,0.231,0.22,0.552,0.5,0.496,0.329,0.194,0.188,0.202,0.192,0.192,0.751,0.637,0.838,0.568
NCI-H1734,0.551,0.458,0.491,0.486,0.499,0.992,0.953,0.916,0.938,0.387,0.305,0.334,0.368,0.326,0.817,0.772,0.82,0.695
NCI-H1437,0.627,0.651,0.568,0.634,0.557,1.08,1.11,1.12,1.09,0.342,0.35,0.307,0.338,0.302,1,0.973,1.04,0.922
NCI-H727,0.819,0.938,0.918,0.769,0.463,0.334,0.249,0.311,0.32,0.659,0.602,0.663,0.624,0.608,0.804,0.994,0.737,0.871
NCI-H1651,0.487,0.725,0.61,0.648,0.527,1.03,1.02,0.98,0.783,0.566,0.596,0.553,0.512,0.522,0.836,0.882,0.897,0.899
NCI-H838,0.54,0.432,0.473,0.513,0.466,1.01,1.05,1,1.09,0.267,0.244,0.226,0.242,0.253,0.872,0.847,0.82,0.77
NCI-H460,0.707,0.726,0.476,0.525,0.539,0.971,0.777,0.594,0.285,0.212,0.213,0.144,0.162,0.181,0.929,0.822,1.11,0.627
HCC-78,0.713,0.639,,0.843,0.737,0.597,0.422,0.522,0.562,0.433,0.41,,0.484,0.46,0.34,0.351,0.339,0.347
SK-LU-1,0.815,0.574,0.638,0.822,0.597,1.19,1.02,0.77,0.334,0.456,0.276,0.352,0.376,0.377,0.837,0.844,0.553,0.325
